Here are results for two compounds from patent US12344596B2, “Solid forms of (S)-1-((2′,6-bis(difluoromethyl)-[2,4′-bipyridin]-5-yl)oxy)-2,4-dimethylpentan-2-amine and salts thereof” (Lexicon Pharmaceuticals, Inc., priority 2022, dated 2025).

Series [1] in a line: storage stability at 40° C. and 75% relative humidity. As to conditions: stored at 40° C. and 75% relative humidity for up to four weeks. It counts as physicochemical. How it is done:
Instead, the melting of Form I is observed to recrystallize to another, metastable form having a melting point of about 172.5° C.

Series [2] in a line: water solubility at 25° C. The format is physicochemical. The conditions noted are these: aqueous.

One may read the solubility as the dissolved amount per volume that the medium holds.

On to `CC(C)C[C@](C)(N)COc1ccc(-c2ccnc(C(F)F)c2)nc1C(F)F` [Compound K, ((S)-1-((2′,6-bis(difluoromethyl)-[2,4′-bipyridin]-5-yl)oxy)-2,4-dimethylpentan-2-aminiumdihydrogen phosphate], for which the “stability of form, morphology and purity on storage” value in series [1] was “neither the form itself, its morphology, nor its purity changed”.
For `CC(C)C[C@](C)(N)COc1ccc(-c2ccnc(C(F)F)c2)nc1C(F)F.Cl` [Compound S, (S)-1-((2′,6-bis(difluoromethyl)-[2,4′-bipyridin]-5-yl)oxy)-2,4-dimethylpentan-2-amine hydrochloride], the solubility in series [2] amounted to 2900 µg/mL.
